Reference: PMC6838683, “Discovery of Human Signaling Systems: Pairing Peptides to G Protein-Coupled Receptors” (Cell, 2019)
pEC50: −log10 of the molar value. Residues, ends and D or L forms follow the SMILES beside them.

Tests used:
[1] = target: T1, GPR55 (Homo sapiens, UniProt Q9Y2T6); assay: Dynamic mass redistribution (DMR), concentration-response; type: cell-based; design: hIL-2Ra signal peptide (N); expressed in transfected cells; settings: mean; for DMR assays Emax (peak or AUC): SEM and n (1-4)
T1 sequence (Q9Y2T6 2-319 limits assumed): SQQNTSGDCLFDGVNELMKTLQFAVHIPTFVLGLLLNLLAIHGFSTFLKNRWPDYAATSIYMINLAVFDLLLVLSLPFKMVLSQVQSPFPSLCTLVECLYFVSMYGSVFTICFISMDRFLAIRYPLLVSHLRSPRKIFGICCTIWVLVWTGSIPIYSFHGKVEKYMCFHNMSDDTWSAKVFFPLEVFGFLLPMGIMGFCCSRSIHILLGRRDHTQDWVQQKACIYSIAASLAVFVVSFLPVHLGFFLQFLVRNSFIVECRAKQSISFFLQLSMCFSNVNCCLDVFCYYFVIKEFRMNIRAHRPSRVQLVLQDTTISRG
Protocol: (§1) 48 hr prior to parallel assaying, SNAP-tagged oGPCR cells were plated (10,000 cells/well) in fibronectin-coated 384-well Epic biosensor microplates (Corning) and poly-D-lysine coated white 384-well plates (for internalization assays). SNAP- GLP-1 receptor was plated alongside orphan receptor cells as an internal assay control for internalization assays. Receptor-expression was induced with 0.1 μg/ml doxycycline.
DMR assays provide a single integrated readout of ligand-dependent cellular response, utilizing an optical biosensor in specialized microplates to detect wavelength shifts of reflected light as it passes through the biosensor and the lower portion of the cell (∼150-200 nm). As a signal pathway agnostic approach, DMR assays are well-suited to the study of GPCRs ([Fang et al., 2008], [Schröder et al., 2011]). The mass redistribution response (Δ picometer (pm)) likely reflects a number of intracellular events, including cytoskeletal rearrangement, protein trafficking and receptor internalization. Orphan receptor-expressing cells were gently washed twice with assay buffer (HBSS with 1 mM CaCl2, 1 mM MgCl2, 20 mM HEPES, 0.01% pluronic F-68, pH 7.4) containing 0.1% DMSO and cells were equilibrated for 90 min at 22°C in the EPIC Benchtop (BT) System (Corning) to establish a stable DMR signal. After 3-5 min baseline recordings, peptides (10 μM) were added in duplicate wells using an electronic 384-channel Viaflo pipette (Integra Biosciences, Switzerland) and DMR responses were measured for 60 min at 22°C. 100 nM norepinephrine was included as an internal assay control to assess the cellular DMR response via endogenously-expressed adrenoceptors in the TREx 293 cells. Real-time data were processed using the BT to column converter MS-Excel macro (Corning) and analyzed in GraphPad Prism 7.0. DMR recordings in peptide screening experiments were buffer and solvent corrected and the area under the curve (AUC) was quantified. For subsequent validation experiments, peptides were diluted in assay buffer containing 0.1% DMSO and DMR assays were performed as above. […] Data represent mean ± standard error of the mean (SEM) from at least 3 biologically independent experiments.

[2] = target: T1, GPR55; assay: Real-time receptor internalization (TR-FRET), concentration-response; type: cell-based; design: hIL-2Ra signal peptide (N); expressed in transfected cells; settings: for EC50 / Internalization assays Emax (AUC): mean
Protocol: as §1
A TR-FRET real-time internalization assay was used to examine peptide-dependent changes in orphan receptor localization as described previously ([Foster and Bräuner-Osborne, 2018]). Surface-expressed SNAP-tagged receptors were labeled with a cell-impermeable luminescent terbium cryptate (100 nM SNAP Lumi4-Tb; Cisbio, France) for 1 hr at 37°C. Cells were washed to remove excess terbium and incubated with fluorescein-O-acetic acid (100 μM; Sigma Aldrich) for 5 min at 37°C. Peptides were added as for DMR assays, and internalization responses were recorded for 60 min at 37°C using an EnVision 2104 Multimode plate reader (PerkinElmer). 100 nM GLP-1 was used as a positive control for SNAP-GLP1R internalization. Real-time internalization responses were calculated based on TR-FRET (excitation 340 nm; emission 520 nm and 615 nm), and were expressed as the ratio between donor (terbium) and acceptor (fluorescein) emission. For peptide screening analysis (both DMR and internalization assays), we calculated the area under the curve from the real-time traces. […] Validation experiments for receptor internalization were performed as above. Internalization data was processed in MS-Excel and area under the curve was used to generate concentration-response curves using GraphPad Prism 7.0. Data represent mean ± standard error of the mean (SEM) from at least 3 biologically independent experiments.

[3] = receptor GPR55, SEM and n (2-4), read-out: DMR assays pEC50 (converted)
[4] = receptor GPR55, SEM and n (3-4), read-out: Internalization assays pEC50 (converted)
[5] = GPR55, SEM and n, read-out: pEC50, DMR (AUC) (converted)
[6] = GPR55, SEM and n, read-out: pEC50, Internalization (AUC) (converted)
[7] = receptor GPR55, SEM and n (3-4)

| Compound | EC50 [1, 3] [nM] | EC50 [2, 4] [nM] | DMR assays Emax (peak or AUC) ([1]; receptor GPR55) | Internalization assays Emax (AUC) [2, 7] | further results |
| --- | --- | --- | --- | --- | --- |
| CC(C)C[C@H](NC(=O)[C@H](C)NC(=O)CNC(=O)[C@H](CC(C)C)NC(=O)[C@H](CCCNC(=N)N)NC(=O)[C@@H](N)CCCCN)C(=O)N[C@@H](Cc1ccccc1)C(=O)N[C@@H](CC(N)=O)C(=O)N1CCC[C@H]1C(=O)N[C@@H](Cc1ccc(O)cc1)C(=O)N[C@@H](Cc1ccccc1)C(=O)N[C@@H](CC(=O)O)C(=O)N1CCC[C@H]1C(=O)N[C@@H](CC(C)C)C(=O)N[C@@H](CCC(N)=O)C(=O)N[C@@H](Cc1c[nH]c2ccccc12)C(=O)N[C@@H](CCCCN)C(=O)N[C@@H](CC(N)=O)C(=O)N[C@@H](CO)C(=O)N[C@@H](CC(=O)O)C(=O)N[C@@H](Cc1ccccc1)C(=O)N[C@@H](CCC(=O)O)C(=O)O [143 resynthesized] (H-KRLGALFNPYFDPLQWKNSDFE-OH) | 3160 | 6310 |  |  |  |
| CC[C@H](C)[C@H](NC(=O)CNC(=O)[C@H](CC(=O)O)NC(=O)[C@H](CO)NC(=O)[C@@H](N)Cc1cnc[nH]1)C(=O)N[C@@H](Cc1ccccc1)C(=O)N[C@H](C(=O)N[C@@H](CC(=O)O)C(=O)N[C@@H](CO)C(=O)N[C@@H](Cc1ccc(O)cc1)C(=O)N[C@@H](CO)C(=O)N[C@@H](CCCNC(=N)N)C(=O)N[C@@H](Cc1ccc(O)cc1)C(=O)N[C@@H](CCCNC(=N)N)C(=O)N[C@@H](CCCCN)C(=O)N[C@@H](CCC(N)=O)C(=O)N[C@@H](CCSC)C(=O)N[C@@H](C)C(=O)N[C@H](C(=O)N[C@@H](CCCCN)C(=O)N[C@@H](CCCCN)C(=O)N[C@@H](Cc1ccc(O)cc1)C(=O)N[C@@H](CC(C)C)C(=O)N[C@@H](C)C(=O)N[C@@H](C)C(=O)N[C@H](C(=O)N[C@@H](CC(C)C)C(=O)NCC(=O)N[C@@H](CCCCN)C(=O)N[C@@H](CCCNC(=N)N)C(=O)N[C@@H](Cc1ccc(O)cc1)C(=O)N[C@@H](CCCCN)C(=O)N[C@@H](CCC(N)=O)C(=O)N[C@@H](CCCNC(=N)N)C(=O)N[C@H](C(=O)N[C@@H](CCCCN)C(=O)N[C@@H](CC(N)=O)C(=O)N[C@@H](CCCCN)C(N)=O)C(C)C)C(C)C)C(C)C)[C@@H](C)O [168.1 (Phoenix)] | 148 |  |  |  | pEC50 ([2]; Internalization assays pEC50): 9.91 |
| CC(C)C[C@H](NC(=O)[C@H](C)NC(=O)CNC(=O)[C@H](CC(C)C)NC(=O)[C@H](CCCNC(=N)N)NC(=O)[C@@H](N)CCCCN)C(=O)N[C@@H](Cc1ccccc1)C(=O)N[C@@H](CC(N)=O)C(=O)N1CCC[C@H]1C(=O)N[C@@H](Cc1ccc(O)cc1)C(=O)N[C@@H](Cc1ccccc1)C(=O)N[C@@H](CC(=O)O)C(=O)N1CCC[C@H]1C(=O)N[C@@H](CC(C)C)C(=O)N[C@@H](CCC(N)=O)C(=O)N[C@@H](Cc1c[nH]c2ccccc12)C(=O)N[C@@H](CCCCN)C(=O)N[C@@H](CC(N)=O)C(=O)N[C@@H](CO)C(=O)N[C@@H](CC(=O)O)C(=O)N[C@@H](Cc1ccccc1)C(=O)N[C@@H](CCC(=O)O)C(=O)O [Chgb (511-532)] (H-KRLGALFNPYFDPLQWKNSDFE-OH) |  |  |  |  | EC50 [1, 5]: 2400 nM; EC50 [2, 6]: 4680 nM |
| CC[C@H](C)[C@H](NC(=O)[C@H](CC(=O)O)NC(=O)[C@@H](NC(=O)[C@H](Cc1ccc(O)cc1)NC(=O)[C@@H](NC(=O)CNC(=O)[C@H](CC(N)=O)NC(=O)[C@@H](NC(=O)[C@H](CC(C)C)NC(=O)[C@H](Cc1ccc(O)cc1)NC(=O)[C@H](CC(=O)O)NC(=O)[C@H](CC(C)C)NC(=O)[C@H](CCCNC(=N)N)NC(=O)[C@H](CO)NC(=O)[C@H](Cc1ccc(O)cc1)NC(=O)[C@H](CCCNC(=N)N)NC(=O)[C@@H](N)CCCCN)[C@@H](C)CC)[C@@H](C)CC)C(C)C)C(=O)O [MANSC (415-431)] (H-KRYSRLDYLINGIYVDI-OH) |  |  |  |  | EC50 [1, 5]: 3090 nM; EC50 [2, 6]: 13500 nM |
| CC[C@H](C)[C@H](NC(=O)CNC(=O)[C@H](CC(=O)O)NC(=O)[C@H](CO)NC(=O)[C@@H](N)Cc1c[nH]cn1)C(=O)N[C@@H](Cc1ccccc1)C(=O)N[C@H](C(=O)N[C@@H](CC(=O)O)C(=O)N[C@@H](CO)C(=O)N[C@@H](Cc1ccc(O)cc1)C(=O)N[C@@H](CO)C(=O)N[C@@H](CCCNC(=N)N)C(=O)N[C@@H](Cc1ccc(O)cc1)C(=O)N[C@@H](CCCNC(=N)N)C(=O)N[C@@H](CCCCN)C(=O)N[C@@H](CCC(N)=O)C(=O)N[C@@H](CCSC)C(=O)N[C@@H](C)C(=O)N[C@H](C(=O)O)C(C)C)[C@@H](C)O [Peptide 168.5] | 1 | 75900 | 31768 | 17.8 |  |
| CC[C@H](C)[C@H](NC(=O)CNC(=O)[C@H](CC(=O)O)NC(=O)[C@H](CO)NC(=O)[C@@H](N)Cc1c[nH]cn1)C(=O)N[C@@H](Cc1ccccc1)C(=O)N[C@H](C(=O)N[C@@H](CC(=O)O)C(=O)N[C@@H](CO)C(=O)N[C@@H](Cc1ccc(O)cc1)C(=O)N[C@@H](CO)C(=O)N[C@@H](CCCNC(=N)N)C(=O)N[C@@H](Cc1ccc(O)cc1)C(=O)N[C@@H](CCCNC(=N)N)C(=O)N[C@@H](CCCCN)C(=O)N[C@@H](CCC(N)=O)C(=O)N[C@@H](CCSC)C(=O)N[C@@H](C)C(=O)N[C@H](C(=O)N[C@@H](CCCCN)C(=O)N[C@@H](CCCCN)C(=O)N[C@@H](Cc1ccc(O)cc1)C(=O)N[C@@H](CC(C)C)C(=O)N[C@@H](C)C(=O)N[C@@H](C)C(=O)N[C@H](C(=O)N[C@@H](CC(C)C)C(=O)NCC(=O)N[C@@H](CCCCN)C(=O)N[C@@H](CCCNC(=N)N)C(=O)N[C@@H](Cc1ccc(O)cc1)C(=O)N[C@@H](CCCCN)C(=O)N[C@@H](CCC(N)=O)C(=O)N[C@@H](CCCNC(=N)N)C(=O)N[C@H](C(=O)N[C@@H](CCCCN)C(=O)N[C@@H](CC(N)=O)C(=O)N[C@@H](CCCCN)C(=O)NCC(=O)N[C@@H](CCCNC(=N)N)C(=O)N[C@@H](CCCNC(=N)N)C(=O)N[C@H](C(=O)N[C@@H](C)C(=O)N[C@@H](Cc1ccc(O)cc1)C(=O)N[C@@H](CC(C)C)C(=O)O)[C@@H](C)CC)C(C)C)C(C)C)C(C)C)[C@@H](C)O [Peptide 168.6] | 331 | 0.115 |  |  |  |
| CC(C)C[C@H](NC(=O)[C@@H](N)CC(=O)O)C(=O)N[C@@H](CC(C)C)C(=O)N1CCC[C@H]1C(=O)O [Peptide 213.1] (H-DLLP-OH) | 0.00724 | 195 |  |  |  |
| C[C@H](NC(=O)[C@@H](N)Cc1c[nH]c2ccccc12)C(=O)N[C@@H](CCCNC(=N)N)C(=O)NCC(=O)N[C@@H](CS)C(=O)N[C@@H](CO)C(=O)N[C@H](C(=O)NCC(=O)N[C@@H](CC(N)=O)C(=O)O)[C@@H](C)O [Peptide 213.2] (H-WARGCSTGN-OH) | 0.0676 | 0.724 |  |  |  |
| DLLPPRTPPYQVHISHREARGPSFRICVDFLG [Peptide 213.5] |  |  | -71711 | 19.6 |  |
| HSDGIFTDSYSRYRKQMAVKKYLAAVL [168 original] |  |  | 312490 | 32.4 |  |
| KRLGALFNPYFDPLQWKNSDFE [143 original] |  |  | 555860 | 39.5 |  |
| KRYSRLDYLINGIYVDI [114 original] |  |  | 619843 | 46.9 |  |
